Assay results from patent publication US20020065219A1, “Water soluble thiazolyl peptide derivatives” (priority 2000, published 2002).
Values after ≈ are worked out from the molar mass of the structure shown. Where two headings read alike, the source gives them in different places.

Tests used:
Test in all cases: MIC, broth micro dilution assay (NCCLS)
Assay type in all cases: cell-based
[1] = system: Enterococcus faecalis A20688; conditions: for MIC: Enterococcus faecalis, A20688, 18 h, read-out: MIC (μg/mL) against Enterococcus faecalis A20688
[2] = system: Streptococcus pneumoniae A28272; conditions: for MIC: Streptococcus pneumoniae, A28272, 18 h, read-out: MIC (μg/mL) against Streptococcus pneumoniae A28272
[3] = system: Staphylococcus aureus A15090; conditions: for MIC: Staphylococcus aureus, A15090, 18 h, read-out: MIC (μg/mL) against Staphylococcus aureus A15090
[4] = Mueller-Hinton medium, 35° C., 18 hours
[5] = 50% Mueller-Hinton medium and 50% Todd Hewitt medium, 35° C., 18 hours

| SMILES | MIC (μg/mL) against Enterococcus faecalis A20688 [1] | MIC (μg/mL) against Streptococcus pneumoniae A28272 [2] | MIC (μg/mL) against Staphylococcus aureus A15090 [3] | MIC (μg/mL) against Enterococcus faecalis A20688 [1, 4] | MIC (μg/mL) against Streptococcus pneumoniae A28272 [2, 5] | MIC (μg/mL) against Staphylococcus aureus A15090 [3, 4] | further results |
| --- | --- | --- | --- | --- | --- | --- | --- |
| CO/C(C)=C1/NC(=O)C(C(C)O)NC(=O)c2csc(n2)-c2cc(O)c(-c3nc(C(=O)NC(CSC4CN5CCC4CC5)C(N)=O)cs3)nc2-c2csc(n2)C2COC(=O)c3c4c5c(cccc5n3O)COC(=O)C(O[C@H]3C[C@](C)(O)[C@H](N(C)C)[C@H](C)O3)C(OC4)C(NC(=O)c3csc1n3)c1nc(cs1)C(=O)N2 (stereo partly drawn) [Example 60] | 2.0 µg/mL (≈ 1.27 µM) | 0.5 µg/mL (≈ 0.316 µM) | 2.0 µg/mL (≈ 1.27 µM) | – | – | – | – |
| CO/C(C)=C1/NC(=O)C(C(C)O)NC(=O)c2csc(n2)-c2cc(O)c(-c3nc(C(=O)NC(CN(C)CCN4CCCCC4)C(N)=O)cs3)nc2-c2csc(n2)C2COC(=O)c3c4c5c(cccc5n3O)COC(=O)C(O[C@H]3C[C@](C)(O)[C@H](N(C)C)[C@H](C)O3)C(OC4)C(NC(=O)c3csc1n3)c1nc(cs1)C(=O)N2 (stereo partly drawn) [Example 30] | 1.0 µg/mL (≈ 0.633 µM) | 0.03 µg/mL (≈ 0.019 µM) | 0.125 µg/mL (≈ 0.0791 µM) | – | – | – | – |
| CO/C(C)=C1/NC(=O)C(C(C)O)NC(=O)c2csc(n2)-c2cc(O)c(-c3nc(C(=O)NC(CNCCn4cc([N+](=O)[O-])nc4C)C(N)=O)cs3)nc2-c2csc(n2)C2COC(=O)c3c4c5c(cccc5n3O)COC(=O)C(O[C@H]3C[C@](C)(O)[C@H](N(C)C)[C@H](C)O3)C(OC4)C(NC(=O)c3csc1n3)c1nc(cs1)C(=O)N2 (stereo partly drawn) [Example 68] | – | – | – | 8.0 µg/mL (≈ 4.98 µM) | 0.5 µg/mL (≈ 0.311 µM) | 2.0 µg/mL (≈ 1.24 µM) | – |
| CO/C(C)=C1/NC(=O)C(C(C)O)NC(=O)c2csc(n2)-c2cc(O)c(-c3nc(C(=O)NC(CSCCN(C)C)C(N)=O)cs3)nc2-c2csc(n2)C2COC(=O)c3c4c5c(cccc5n3O)COC(=O)C(O[C@H]3C[C@](C)(O)[C@H](N(C)C)[C@H](C)O3)C(OC4)C(NC(=O)c3csc1n3)c1nc(cs1)C(=O)N2 (stereo partly drawn) [Example 10] | – | – | – | – | – | – | MIC [1]: 0.25 µg/mL (≈ 0.162 µM); MIC [2]: 0.015 µg/mL (≈ 0.00972 µM); MIC [3]: 0.125 µg/mL (≈ 0.081 µM) |
| COC(C)=C1NC(=O)C(C(C)O)NC(=O)c2csc(n2)-c2cc(O)c(-c3nc(C(=O)NC(CN4CCCC4CO)C(N)=O)cs3)nc2-c2csc(n2)C2COC(=O)c3c4c5c(cccc5n3O)COC(=O)C(OC3CC(C)(O)C(N(C)C)C(C)O3)C(OC4)C(NC(=O)c3csc1n3)c1nc(cs1)C(=O)N2 (stereo not drawn) [Example 78] | – | – | – | 0.125 µg/mL (≈ 0.0812 µM) | 0.007 µg/mL (≈ 0.00455 µM) | 0.03 µg/mL (≈ 0.0195 µM) | – |
| CO/C(C)=C1/NC(=O)C(C(C)O)NC(=O)c2csc(n2)-c2cc(O)c(-c3nc(C(=O)NC(CN(C)Cc4ccccc4O[C@@H]4O[C@H](CO)[C@@H](O)[C@H](O)[C@H]4O)C(N)=O)cs3)nc2-c2csc(n2)C2COC(=O)c3c4c5c(cccc5n3O)COC(=O)C(O[C@H]3C[C@](C)(O)[C@H](N(C)C)[C@H](C)O3)C(OC4)C(NC(=O)c3csc1n3)c1nc(cs1)C(=O)N2 (stereo partly drawn) [Example 29] | – | – | – | 0.25 µg/mL (≈ 0.144 µM) | 0.015 µg/mL (≈ 0.00864 µM) | 0.06 µg/mL (≈ 0.0345 µM) | – |
| CO/C(C)=C1/NC(=O)C(C(C)O)NC(=O)c2csc(n2)-c2cc(O)c(-c3nc(C(=O)NC(CSCCc4nnn[nH]4)C(N)=O)cs3)nc2-c2csc(n2)C2COC(=O)c3c4c5c(cccc5n3O)COC(=O)C(O[C@H]3C[C@](C)(O)[C@H](N(C)C)[C@H](C)O3)C(OC4)C(NC(=O)c3csc1n3)c1nc(cs1)C(=O)N2 (stereo partly drawn) [Example 47] | – | – | – | 32 µg/mL (≈ 20.4 µM) | 0.25 µg/mL (≈ 0.159 µM) | 2.0 µg/mL (≈ 1.28 µM) | – |
| CO/C(C)=C1/NC(=O)C(C(C)O)NC(=O)c2csc(n2)-c2cc(O)c(-c3nc(C(=O)NC(CN4C[C@H](C)NC[C@@H]4C)C(N)=O)cs3)nc2-c2csc(n2)C2COC(=O)c3c4c5c(cccc5n3O)COC(=O)C(O[C@H]3C[C@](C)(O)[C@H](N(C)C)[C@H](C)O3)C(OC4)C(NC(=O)c3csc1n3)c1nc(cs1)C(=O)N2 (stereo partly drawn) [Example 59] | – | – | – | 2.0 µg/mL (≈ 1.29 µM) | 0.25 µg/mL (≈ 0.161 µM) | 1.0 µg/mL (≈ 0.644 µM) | – |
| CO/C(C)=C1/NC(=O)C(C(C)O)NC(=O)c2csc(n2)-c2cc(O)c(-c3nc(C(=O)NC(CSCC(=O)O)C(N)=O)cs3)nc2-c2csc(n2)C2COC(=O)c3c4c5c(cccc5n3O)COC(=O)C(O[C@H]3C[C@](C)(O)[C@H](N(C)C)[C@H](C)O3)C(OC4)C(NC(=O)c3csc1n3)c1nc(cs1)C(=O)N2 (stereo partly drawn) [Example 4] | – | – | – | – | – | – | MIC [1]: 2 µg/mL (≈ 1.31 µM); MIC [2]: 0.125 µg/mL (≈ 0.0817 µM); MIC [3]: 2 µg/mL (≈ 1.31 µM) |
| COC(C)=C1NC(=O)C(C(C)O)NC(=O)c2csc(n2)-c2cc(O)c(-c3nc(C(=O)NC(CN4CCCC4COc4cccnc4)C(N)=O)cs3)nc2-c2csc(n2)C2COC(=O)c3c4c5c(cccc5n3O)COC(=O)C(OC3CC(C)(O)C(N(C)C)C(C)O3)C(OC4)C(NC(=O)c3csc1n3)c1nc(cs1)C(=O)N2 (stereo not drawn) [Example 79] | 0.125 µg/mL (≈ 0.0774 µM) | 0.001 µg/mL (≈ 0.000619 µM) | 0.06 µg/mL (≈ 0.0371 µM) | – | – | – | – |
